Laboratory results as given in patent US20160367502A1, “FILM COATED PELLETS” (RATIOPHARM GMBH, priority 2012, published 2016).
Read-outs that look alike come from different tables or passages of the source.

Experiment: Solubility in water at 25° C.
Assay type: physicochemical
Description: If it is not known, it can be determined by conventional methods. […] The amount or concentration of the active pharmaceutical ingredient in the solution is determined by analytical techniques known in the art.

[1] = sitagliptin salts, water, 25° C.

Row | Solubility of sitagliptin salts in water at 25° C. [mg/mL] | Compound | Solubility of sitagliptin salts in water at 25° C. [1] [mg/mL]
1 |  | N[C@@H](CC(=O)N1CCn2c(nnc2C(F)(F)F)C1)Cc1cc(F)c(F)cc1F.O=C[C@H](O)[C@@H](O)[C@H](O)[C@H](O)C(=O)O [D-Glucuronate, sitagliptin D-glucuronate] | >500
2 |  | N[C@@H](CC(=O)N1CCn2c(nnc2C(F)(F)F)C1)Cc1cc(F)c(F)cc1F.O=P(O)(O)O [Dihydrogen phosphate, sitagliptin dihydrogen phosphate] | 100 to 120
3 | >500 | sitagliptin glutarate | 
